# According to US10301304B2, “Selective inhibitor of phosphatidylinositol 3-kinase-gamma” (VERTEX PHARMACEUTICALS INCORPORATED, priority 2013, dated 2019):
# Read-outs that look alike come from different tables or passages of the source.
# What was measured:
# [1] = Intravenous bolus pharmacokinetics; type: in vivo; details: single IV bolus; for AUC / AUC(0-inf) / clearance / half-life / Vd: in vivo; for Vd: read-out: Vss
# Description: (§1) Following intravenous administration of a single bolus dose, Compound 1 had low systemic clearance and a long half-life in all species tested. […] The volume of distribution was greater than the total body water, indicating distribution of Compound 1 to tissues.
# [2] = Intravenous bolus pharmacokinetics; type: in vivo, Rat; details: for AUC: rat, iv, 0.5 mg/kg
# Description: as §1
# CYP3A4 = CYP3A4 Induction in Human Hepatocytes; type: in vitro ADME
# Protocol: CYP activity was determined by monitoring metabolite formation of specific CYP probe substrates (phenacetin for CYP1A2 and testosterone for CYP3A4) using LC-MS/MS. CYP messenger ribonucleic acid (mRNA) was analyzed by RT-PCR to confirm CYP induction potential.
# [3] = system: CSF-1 stimulated pAkt in THP-1 cells (PI3Kα/β/δ); assay: CSF-1 Stimulated pAkt in THP-1 Cells; type: cell-based; details: Homo sapiens; THP-1/CSF-1/pAkt, PI3K-alpha/beta/delta dependent; read-out: IC50 Avg +/− SD
# Protocol: Growth factors, cytokines and other ligands of receptor tyrosine kinases, like CSF1, bind to their receptors leading to activation of the class IA PI3K signaling pathway. PI3K activation leads to generation of PIP3 and activation of downstream molecules like PDK-1 and Akt. Akt phosphorylation is a measure of PI3K activity in the cell. THP-1 cells (a human monocytic cell line) are starved overnight to deplete pAkt levels. Stimulation with CSF-1 for 5 minutes leads to PI3Kα/β/δ induced phoshorylation of Akt at the Threonine 308 and Serine 473 sites. Cells were fixed and stained for intracellular phosphoAkt (Ser 473) then analyzed on the BD FACSCalibur™ cytometer. This is a measure of cellular Class IA PI3K inhibition.
# CYP1A2 = CYP1A2 (Homo sapiens, UniProt P05177); assay: Inhibition of CYP Enzymes in Human Liver Microsomes; type: in vitro ADME; parameters: from tissue; host or cells: human liver microsomes; details: CYP1A2, 30 μM Phenacetin
# Protocol: (§2) Inhibition assays were conducted with selective CYP probes for each CYP enzyme at specific concentrations of substrate (close to its dissociation constant (Km) value). Compound 1 was a moderate inhibitor of CYP 1A2, 2B6 and 2C8; […]
# CYP2C19 = CYP2C19 (Homo sapiens, UniProt P33261); assay: as above; type: in vitro ADME; parameters: from tissue; host or cells: human liver microsomes; details: CYP2C19, 30 μM S-Mephenytoin
# Protocol: as §2
# CYP2B6 = CYP2B6 (Homo sapiens, UniProt P20813); assay: as above; type: in vitro ADME; parameters: from tissue; host or cells: human liver microsomes; details: CYP2B6, 100 μM Bupropion
# Protocol: as §2
# CYP2D6 = CYP2D6 (Homo sapiens, UniProt P10635); assay: as above; type: in vitro ADME; parameters: from tissue; host or cells: human liver microsomes; details: CYP2D6, 10 μM Bufuralol
# Protocol: as §2
# CYP2C8 = CYP2C8 (Homo sapiens, UniProt P10632); assay: as above; type: in vitro ADME; parameters: from tissue; host or cells: human liver microsomes; details: CYP2C8, 2.5 μM Paclitaxel
# Protocol: as §2
# CYP2C9 = CYP2C9 (Homo sapiens, UniProt P11712); assay: as above; type: in vitro ADME; parameters: from tissue; host or cells: human liver microsomes; details: CYP2C9, 2.5 μM Diclofenac
# Protocol: as §2
# Purified human B cells = assay: Human B Cell Proliferation Assay; type: cell-based
# Description: B cells are highly dependent on PI3Kδ for their development and activity. […] has an essential and non-redundant role in signaling via the B cell receptor (BCR) complex. Both IgM induced Ca+ influx and proliferation are attenuated in mice lacking PI3K-δ or with PI3K-δ inhibitors. PI3K-gamma has no role to play in any B cell activity. The specificity of the BCR complex for the […] to evaluate the extent of […] inhibition in cells. Purified human B cells are stimulated with anti-IgM in the presence of test compounds. Four days later cell viability/proliferation was measured using cell titer-glo to measure the ATP content of the cells in the well. Lack of or reduced proliferation is a measure of the extent of […].
# [4] = Rat, single IV bolus, 0.5 mg/kg nominal
# [5] = plasma, Rat, single IV bolus, 0.5 mg/kg nominal
# Sequence of CYP2D6 (P10635 whole entry): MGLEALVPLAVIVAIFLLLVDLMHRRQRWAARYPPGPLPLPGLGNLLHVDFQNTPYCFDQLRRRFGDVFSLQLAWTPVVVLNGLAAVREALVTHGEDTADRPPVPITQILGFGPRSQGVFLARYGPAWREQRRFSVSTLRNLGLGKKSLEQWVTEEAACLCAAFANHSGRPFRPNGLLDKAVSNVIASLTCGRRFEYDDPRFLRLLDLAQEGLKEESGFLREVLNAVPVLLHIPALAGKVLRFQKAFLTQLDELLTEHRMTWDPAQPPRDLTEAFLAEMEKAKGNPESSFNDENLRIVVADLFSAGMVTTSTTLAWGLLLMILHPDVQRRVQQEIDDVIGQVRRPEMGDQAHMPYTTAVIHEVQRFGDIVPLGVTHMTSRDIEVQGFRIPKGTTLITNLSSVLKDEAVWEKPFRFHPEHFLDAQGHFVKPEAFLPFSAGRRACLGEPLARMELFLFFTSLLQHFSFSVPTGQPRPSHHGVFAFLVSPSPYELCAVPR
# Sequence of CYP2B6 (P20813 whole entry): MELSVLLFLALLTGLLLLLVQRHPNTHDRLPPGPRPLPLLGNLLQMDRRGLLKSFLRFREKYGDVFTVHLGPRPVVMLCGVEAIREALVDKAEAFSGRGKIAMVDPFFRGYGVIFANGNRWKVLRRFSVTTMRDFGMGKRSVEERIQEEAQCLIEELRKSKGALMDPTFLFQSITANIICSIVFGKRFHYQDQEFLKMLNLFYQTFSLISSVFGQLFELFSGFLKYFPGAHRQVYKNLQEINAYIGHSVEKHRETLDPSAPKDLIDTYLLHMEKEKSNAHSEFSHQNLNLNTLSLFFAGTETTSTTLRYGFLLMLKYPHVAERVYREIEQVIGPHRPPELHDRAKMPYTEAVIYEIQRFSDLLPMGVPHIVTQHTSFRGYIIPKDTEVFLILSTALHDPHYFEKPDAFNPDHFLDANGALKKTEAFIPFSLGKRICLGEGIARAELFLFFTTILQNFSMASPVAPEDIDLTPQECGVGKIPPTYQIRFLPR
# Sequence of CYP2C19 (P33261 whole entry): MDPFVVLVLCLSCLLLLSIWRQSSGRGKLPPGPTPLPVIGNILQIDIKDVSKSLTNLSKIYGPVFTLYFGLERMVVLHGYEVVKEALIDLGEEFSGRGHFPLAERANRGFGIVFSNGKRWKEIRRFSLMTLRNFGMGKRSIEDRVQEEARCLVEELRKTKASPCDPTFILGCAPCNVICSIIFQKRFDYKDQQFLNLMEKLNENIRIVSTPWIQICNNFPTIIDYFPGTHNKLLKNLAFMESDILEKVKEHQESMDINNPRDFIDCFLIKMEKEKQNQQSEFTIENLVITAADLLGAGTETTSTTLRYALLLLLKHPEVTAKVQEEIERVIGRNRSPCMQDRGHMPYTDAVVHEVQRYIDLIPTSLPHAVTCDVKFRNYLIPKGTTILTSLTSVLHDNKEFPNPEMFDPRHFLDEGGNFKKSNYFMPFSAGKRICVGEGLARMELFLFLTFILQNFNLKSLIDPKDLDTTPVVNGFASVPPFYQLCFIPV
# Sequence of CYP2C9 (P11712 whole entry): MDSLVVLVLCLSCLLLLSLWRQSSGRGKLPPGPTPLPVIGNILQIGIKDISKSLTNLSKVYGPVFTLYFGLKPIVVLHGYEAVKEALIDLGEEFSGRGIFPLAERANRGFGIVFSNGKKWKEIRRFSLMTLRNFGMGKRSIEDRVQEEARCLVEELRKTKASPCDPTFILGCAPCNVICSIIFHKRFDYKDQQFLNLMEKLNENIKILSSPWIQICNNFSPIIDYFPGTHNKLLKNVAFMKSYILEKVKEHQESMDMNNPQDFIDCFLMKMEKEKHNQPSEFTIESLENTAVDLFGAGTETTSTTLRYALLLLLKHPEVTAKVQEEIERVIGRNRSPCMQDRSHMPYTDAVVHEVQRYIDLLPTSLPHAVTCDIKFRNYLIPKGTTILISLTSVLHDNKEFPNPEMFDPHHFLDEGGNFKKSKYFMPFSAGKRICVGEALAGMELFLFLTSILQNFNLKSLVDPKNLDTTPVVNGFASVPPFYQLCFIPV
# Sequence of CYP1A2 (P05177 whole entry): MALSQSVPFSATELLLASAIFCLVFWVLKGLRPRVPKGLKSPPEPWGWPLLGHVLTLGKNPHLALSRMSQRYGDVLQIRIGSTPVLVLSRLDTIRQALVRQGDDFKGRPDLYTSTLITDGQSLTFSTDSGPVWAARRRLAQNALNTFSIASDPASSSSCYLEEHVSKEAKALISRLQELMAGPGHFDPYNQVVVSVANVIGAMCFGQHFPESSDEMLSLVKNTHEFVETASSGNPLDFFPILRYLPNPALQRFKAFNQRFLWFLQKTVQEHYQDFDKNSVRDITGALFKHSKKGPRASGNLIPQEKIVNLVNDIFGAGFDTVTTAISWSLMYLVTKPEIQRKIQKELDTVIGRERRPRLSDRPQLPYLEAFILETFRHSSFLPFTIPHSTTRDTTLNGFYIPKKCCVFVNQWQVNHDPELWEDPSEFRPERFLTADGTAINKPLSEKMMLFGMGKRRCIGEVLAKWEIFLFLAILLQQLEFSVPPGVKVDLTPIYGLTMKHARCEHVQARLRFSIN
# Sequence of CYP2C8 (P10632 whole entry): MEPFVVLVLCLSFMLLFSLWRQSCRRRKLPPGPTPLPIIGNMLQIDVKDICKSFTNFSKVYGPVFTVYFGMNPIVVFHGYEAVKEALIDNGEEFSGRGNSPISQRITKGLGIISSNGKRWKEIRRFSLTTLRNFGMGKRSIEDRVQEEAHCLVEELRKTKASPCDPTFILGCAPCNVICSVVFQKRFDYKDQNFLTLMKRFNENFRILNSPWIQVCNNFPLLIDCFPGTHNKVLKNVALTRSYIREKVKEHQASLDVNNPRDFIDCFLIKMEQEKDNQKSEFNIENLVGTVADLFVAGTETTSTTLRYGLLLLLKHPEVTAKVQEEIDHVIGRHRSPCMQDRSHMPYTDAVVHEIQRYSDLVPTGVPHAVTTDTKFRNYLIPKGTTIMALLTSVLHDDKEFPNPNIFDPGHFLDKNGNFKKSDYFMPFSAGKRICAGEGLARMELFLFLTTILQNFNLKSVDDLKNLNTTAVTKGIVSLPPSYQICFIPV
structure (smiles),measurement,setting,value
"Cc1cc(-c2cncc([C@@H](O)C(F)(F)F)c2)nc2c1C(=O)N(c1cnn(CC(F)F)c1)C2(C)C [Compound 1, (R)-6-(1-(2,2-difluoroethyl)-1H-pyrazol-4-yl)-4,7,7-trimethyl-2-(5-(2,2,2-trifluoro-1-hydroxyethyl)pyridin-3-yl)-6,7-dihydro-5H-pyrrolo[3,4-b]pyridin-5-one]",% HBF (hepatic blood flow),"[1]; Dog, 0.5 mg/kg nominal",~13%
same,DN_AUCINF,"[1]; Dog, 0.5 mg/kg nominal",4000 ng·h/mL
same,% HBF (hepatic blood flow),"[1]; Monkey, 0.5 mg/kg nominal",~26%
same,DN_AUCINF,"[1]; Monkey, 0.5 mg/kg nominal",1500 ng·h/mL
same,DN_AUCINF,"[1]; Mouse, 0.45 mg/kg nominal",3400 ng·h/mL
same,AUC,"[1]; Dog, 0.5 mg/kg nominal",1900 ng·h/mL
same,AUC(0-inf),"[1]; Dog, 0.5 mg/kg nominal",2000 ng·h/mL
same,clearance,"[1]; Dog, 0.5 mg/kg nominal",5.4 mL/min/kg
same,half-life,"[1]; Dog, 0.5 mg/kg nominal",10.7 h
same,Vd,"[1]; Dog, 0.5 mg/kg nominal",3.9 L/kg
same,AUC,"[1]; Monkey, 0.5 mg/kg nominal",700 ng·h/mL
same,AUC(0-inf),"[1]; Monkey, 0.5 mg/kg nominal",740 ng·h/mL
same,clearance,"[1]; Monkey, 0.5 mg/kg nominal",11.5 mL/min/kg
same,half-life,"[1]; Monkey, 0.5 mg/kg nominal",6.6 h
same,Vd,"[1]; Monkey, 0.5 mg/kg nominal",3.3 L/kg
same,AUC,"[1]; Mouse, 0.45 mg/kg nominal",1090 ng·h/mL
same,AUC(0-inf),"[1]; Mouse, 0.45 mg/kg nominal",1530 ng·h/mL
same,clearance,"[1]; Mouse, 0.45 mg/kg nominal",4.9 mL/min/kg
same,half-life,"[1]; Mouse, 0.45 mg/kg nominal",4.3 h
same,Vd,"[1]; Mouse, 0.45 mg/kg nominal",1.8 L/kg
same,% HBF (hepatic blood flow),[2]; [4],~3.6%
same,DN_AUCINF,[2]; [4],6200 ng·h/mL
same,AUC(0-inf),[2]; [5],3100 ng·h/mL
same,half-life,[2]; [5],8.2 h
same,clearance,"[2]; plasma, Rat, single IV bolus, 0.5 mg/kg nominal, read-out: CL",2.8 mL/min/kg
same,Vd,"[2]; plasma, Rat, single IV bolus, 0.5 mg/kg nominal, read-out: Vss",1.8 L/kg
same,AUC,"[2]; plasma, Intravenous bolus, 0.5 mg/kg nominal dose, read-out: Rat IV AUC",3100 ng·h/mL
same,AUC,"[2]; plasma, Rat, single IV bolus, 0.5 mg/kg nominal, read-out: AUCALL",2690 ng·h/mL
same,CYP3A4 mRNA message,"CYP3A4; 0.5 μM, lot 8123",0.4 fold change
same,Testosterone-6β-Hydroxylation,"CYP3A4; 0.5 μM, lot 8123",0.3 fold change
same,CYP3A4 mRNA message,"CYP3A4; 0.5 μM, lot LMP",1.0 fold change
same,Testosterone-6β-Hydroxylation,"CYP3A4; 0.5 μM, lot LMP",0.9 fold change
same,CYP3A4 mRNA message,"CYP3A4; 0.5 μM, lot YOW",1.3 fold change
same,Testosterone-6β-Hydroxylation,"CYP3A4; 0.5 μM, lot YOW",1.0 fold change
same,CYP3A4 mRNA message,"CYP3A4; 1.0 μM, lot 8123",0.3 fold change
same,Testosterone-6β-Hydroxylation,"CYP3A4; 1.0 μM, lot 8123",0.5 fold change
same,CYP3A4 mRNA message,"CYP3A4; 1.0 μM, lot LMP",0.7 fold change
same,Testosterone-6β-Hydroxylation,"CYP3A4; 1.0 μM, lot LMP",0.8 fold change
same,CYP3A4 mRNA message,"CYP3A4; 1.0 μM, lot YOW",0.2 fold change
same,Testosterone-6β-Hydroxylation,"CYP3A4; 1.0 μM, lot YOW",0.8 fold change
same,CYP3A4 mRNA message,"CYP3A4; 5.0 μM, lot 8123",0.5 fold change
same,Testosterone-6β-Hydroxylation,"CYP3A4; 5.0 μM, lot 8123",0.4 fold change
same,CYP3A4 mRNA message,"CYP3A4; 5.0 μM, lot LMP",1.1 (1.1) fold change
same,Testosterone-6β-Hydroxylation,"CYP3A4; 5.0 μM, lot LMP",1.1 (1.1) fold change
same,Testosterone-6β-Hydroxylation,"CYP3A4; 5.0 μM, lot YOW",0.9 (NR^1) fold change
same,CYP3A4 mRNA message,"CYP3A4; 10.0 μM, lot 8123",1.1 fold change
same,Testosterone-6β-Hydroxylation,"CYP3A4; 10.0 μM, lot 8123",0.4 fold change
same,CYP3A4 mRNA message,"CYP3A4; 10.0 μM, lot LMP",1.5 fold change
same,Testosterone-6β-Hydroxylation,"CYP3A4; 10.0 μM, lot LMP",1.1 fold change
same,Testosterone-6β-Hydroxylation,"CYP3A4; 10.0 μM, lot YOW",0.8 (NR^1) fold change
same,CYP3A4 mRNA message,"CYP3A4; 20.0 μM, lot 8123",0.7 fold change
same,Testosterone-6β-Hydroxylation,"CYP3A4; 20.0 μM, lot 8123",0.6 fold change
same,CYP3A4 mRNA message,"CYP3A4; 20.0 μM, lot LMP",3.0 fold change
same,Testosterone-6β-Hydroxylation,"CYP3A4; 20.0 μM, lot LMP",1.4 fold change
same,Testosterone-6β-Hydroxylation,"CYP3A4; 20.0 μM, lot YOW",0.6 (NR^1) fold change
same,Testosterone-6β-Hydroxylation,"CYP3A4; 30.0 μM, lot 8123",0.7 (NR^2) fold change
same,CYP3A4 mRNA message,"CYP3A4; 30.0 μM, lot LMP",2.5 fold change
same,Testosterone-6β-Hydroxylation,"CYP3A4; 30.0 μM, lot LMP",1.0 fold change
same,Testosterone-6β-Hydroxylation,"CYP3A4; 30.0 μM, lot YOW",0.6 (NR^1) fold change
same,"change in CYP3A4 activity and mRNA levels, % of the positive control","CYP3A4; all three hepatocyte lots, 48 hour exposure",less than 20%
same,IC50,[3],> 9.7 µM
same,IC50,CYP1A2,7 µM
same,IC50,CYP2C19,21 µM
same,IC50,CYP2B6,4 µM
same,IC50,CYP2D6,64 µM
same,IC50,CYP2C8,7 µM
same,IC50,CYP2C9,32 µM
same,selectivity window over PI3K-δ,Purified human B cells; B cell proliferation,11 fold
same,IC50,"Purified human B cells; Homo sapiens, 96 h, B cell/IgM/Proliferation, four days, read-out: IC50 Avg +/− SD",3.05 ± 0.44 µM
same,selectivity over PI3K-delta in cell based assays,Purified human B cells; summary,12 fold
